According to article PMC4911353, “Pharmacologic Inhibition of Host Phosphodiesterase-4 Improves Isoniazid-Mediated Clearance of Mycobacterium tuberculosis” (Frontiers in Immunology, 2016):

System: Mtb-infected mouse lungs
Assay: Genome-wide lung transcriptome (microarray, IPA network/GO analysis) of Mtb-infected mice
Format: in vivo
[1] = Canonical IFN signaling pathway

## CCOc1cc([C@@H](CS(C)(=O)=O)N2Cc3cccc(NC(=O)C4CC4)c3C2=O)ccc1OC [CC-11050, N-[2-[(1S)-1-(3-ethoxy-4-methoxyphenyl)-2-(methylsulfonyl)ethyl]-2,3-dihydro-3-oxo-1H-isoindol-4-yl]-(9Cl) cyclopropanecarboxamide]
14 days of treatment (29 upregulated and 18 downregulated)
  Number of SDEGs affected by more than 1.5-folds: 47
14 days of treatment, FDR 5%
  Number of SDEGs relative to infected untreated animals: 1,277
[1]
  BAK expression: 0
  BAX expression: 0
  DRIP150 expression: 0
  IFI35 expression: 0
  IFIT3 expression: 0
  IFNAR2 expression: 0
  IFNG expression: 0
  IFNGRb expression: -1.115
  IRF1 expression: 0
  IRF9 expression: 0
  JAK2 expression: 0
  OAS1 expression: 0
  PIAS1 expression: 0
  PSMB8 expression: 0
  SOCS1 expression: 0
  STAT1 expression: 0
  STAT2 expression: 0
  TAP1 expression: 0
  TC-PTP expression: 0
  TYK2 expression: 0
IL17 interaction network
  ACTB expression: 0
  CCL2 expression: 0
  CCL5 expression: 0
  CCL13 expression: 0
  CSF2 expression: 0
  EDIL3 expression: 0
  ENTPD1 expression: 1.149
  HMGB1 expression: -1.135
  HSPB8 expression: 1.322
  IFNG expression: 0
  IL1B expression: 0
  IL6 expression: 0
  IL10 expression: 0
  IL16 expression: 0
  IL17A expression: 0
  IL17D expression: 0
  IL17F expression: -1.184
  LTA expression: 0
  MMP9 expression: 0
  NOS2 expression: 0
  PTGS2 expression: 0
  RGS13 expression: 0
  SELE expression: 0
  STAT3 expression: 0
  TIMP1 expression: 0
  TLR4 expression: 0
  TNF expression: 0
  TRAF3IP2 expression: 0
  TRAF6 expression: 0
  VWF expression: 0
Lung inflammation network
  ABL1 expression: 0
  ACO2 expression: 0
  ACTB expression: 0
  ADORA2A expression: 0
  AGER expression: 0
  AGTR1 expression: 0
  AHR expression: 0
  ALDH2 expression: 0
  ANGPT1 expression: 0
  ANXA3 expression: 0
  ATF3 expression: 0
  BAX expression: 0
  BID expression: 0
  BSG expression: 0
  CASP1 expression: 0
  CAV1 expression: 0
  CBL expression: 0
  CCL2 expression: 0
  CCL5 expression: 0
  CCR4 expression: 0
  CCR5 expression: 0
  CD4 expression: 0
  CD14 expression: 0
  CD40LG expression: 0
  CD44 expression: 0
  CD86 expression: 0
  CD200 expression: 0
  CIITA expression: 0
  CSF2RB expression: 0
  CSF2 expression: 0
  CSK expression: 0
  CTLA4 expression: 0
  CTSS expression: 0
  CXCR3 expression: 0
  CYBB expression: 0
  CYLD expression: 0
  Ccl6 expression: 0
  Cd59a expression: 0
  Cxcl15 expression: 0
  E2F3 expression: -1.343
  EDNRA expression: 0
  EDNRB expression: 1.235
  EIF2C2 expression: 0
  ENTPD1 expression: 1.149
  F2RL1 expression: 0
  F10 expression: 0
  FASLG expression: 0
  FBN1 expression: 0
  FCGR2B expression: 0
  FCGRT expression: 1.165
  FOXO3 expression: 1.609
  HMGCR expression: 0
  HRH1 expression: 0
  HTT expression: 0
  IFNG expression: 0
  IFNGR2 expression: -1.115
  IKBKB expression: 0
  IKBKE expression: 0
  IL1B expression: 0
  IL1R1 expression: 0
  IL2RG expression: 0
  IL4R expression: 0
  IL6 expression: 0
  IL10 expression: 0
  IL12B expression: 0
  IL15RA expression: 0
  IL16 expression: 0
  IL17RB expression: 0
  IL18 expression: 0
  ITGB6 expression: 0
  ITGBL1 expression: 0
  ITK expression: 0
  KIT expression: 0
  LAT expression: 0
  LCP2 expression: 0
  LGALS1 expression: 0
  LIF expression: -1.187
  LTA expression: 0
  MAP3K14 expression: 0
  MARK2 expression: 0
  MGAT5 expression: 0
  MKL2 expression: 0
  MMP9 expression: 0
  MMP14 expression: 0
  NCF1 expression: 0
  NEO1 expression: 0
  NFATC2 expression: 0
  NFKB1 expression: 0
  NLRP3 expression: 0
  NOD1 expression: 0
  NOD2 expression: 0
  NOS2 expression: 0
  NQO1 expression: 0
  NQO2 expression: 0
  NT5E expression: 0
  PDE5A expression: 0
  PDGFRA expression: 0
  PDGFRB expression: 0
  PLA2G4A expression: 0
  PLAU expression: 0
  PTAFR expression: 0
  PTEN expression: 1.12
  PTGS2 expression: 0
  PTPN6 expression: 0
  PTPRC expression: 0
  RELB expression: 0
  S100A4 expression: 0
  SELE expression: 0
  SFTPA1 expression: 1.126
  SFTPD expression: 0
  SLC6A2 expression: 0
  SOCS1 expression: 0
  SPI1 expression: 0
  SPP1 expression: 0
  STAT1 expression: 0
  TFPI expression: 1.241
  TIMP1 expression: 0
  TLR2 expression: 0
  TLR4 expression: 0
  TNFAIP8L2 expression: 0
  TNFRSF1B expression: 0
  TNFRSF4 expression: 0
  TNFRSF9 expression: 0
  TNFRSF25 expression: 0
  TNFSF15 expression: 0
  TOP2A expression: 0
  TRAF3IP2 expression: 0
  TRAF6 expression: 0
  TRPM2 expression: 0
  mir-15 expression: -1.286
  mir-19 expression: 0
  mir-25 expression: 0
  mir-27 expression: 0
  mir-30 expression: 0
  mir-155 expression: 0
  mir-181 expression: 0
TNF-a regulon network
  ABCC1 expression: 0
  ABCC3 expression: 0
  ABCD2 expression: 0
  ABCG2 expression: 0
  ABR expression: 0
  ABTB2 expression: 0
  ACADM expression: 0
  ACE expression: 1.167
  ACOX1 expression: 0
  ACSL1 expression: 0
  ADAM8 expression: 0
  ADAMTS5 expression: 0
  ADIPOQ expression: 0
  ADM expression: 0
  ADRB3 expression: 0
  AEBP1 expression: 0
  AGT expression: 0
  AK2 expression: 0
  ALAD expression: 0
  ALDH3A1 expression: 0
  ALOX5 expression: 0
  ANGPT2 expression: 0
  ANGPTL4 expression: 1.8298
  ANXA11 expression: 0
  AOC3 expression: 0
  APLN expression: 0
  APOBEC3B expression: 0
  APOC2 expression: 0
  AQP1 expression: 0
  AQP7 expression: 0
  ARF4 expression: 1.158
  ASGR1 expression: 0
  ASS1 expression: 0
  AVPR1A expression: 0
  Abcb1b expression: 0
  Aldh1a7 expression: 0
  B2M expression: 0
  B4GALT1 expression: 0
  BCKDHA expression: 0
  BCKDHB expression: 0
  BCL2A1 expression: 0
  BCL2L13 expression: 1.114
  BCL3 expression: 0
  BGN expression: 0
  BHLHE40 expression: 1.386
  BIRC2 expression: 0
  BIRC3 expression: 0
  BIRC5 expression: 0
  BMP4 expression: 0
  BMPR1A expression: 0
  BST2 expression: 0
  BTG1 expression: 0
  BUB1B expression: 0
  C3 expression: 0
  C10orf10 expression: 0
  C11orf82 expression: 0
  C21orf33 expression: 0
  CASP4 expression: 0
  CASP6 expression: 0
  CASP7 expression: 0
  CAT expression: 0
  CCL1 expression: 0
  CCL4 expression: 0
  CCL7 expression: 0
  CCL19 expression: 0
  CCL20 expression: 0
  CCR8 expression: 0
  CD3E expression: 0
  CD5 expression: 0
  CD28 expression: 0
  CD40 expression: 0
  CD69 expression: 0
  CD80 expression: 0
  CD82 expression: 0
  CD83 expression: 0
  CD247 expression: 0
  CD274 expression: 0
  CDC25C expression: 0
  CDH2 expression: 0
  CDH13 expression: 0
  CDKN2C expression: 0
  CDO1 expression: 1.459
  CEBPD expression: 0
  CELF1 expression: 0
  CFB expression: 0
  CFD expression: 0
  CFLAR expression: 0
  CH25H expression: 0
  CHST2 expression: 0
  CHST4 expression: 0
  CIB2 expression: 0
  CIDEC expression: 0
  CLDN11 expression: 0
  CLEC4E expression: 0
  CLEC5A expression: 0
  COL1A2 expression: 0
  COTL1 expression: 0
  CPT1A expression: 1.211
  CPT2 expression: 0
  CRADD expression: 0
  CREM expression: 0
  CSF1R expression: 0
  CSF1 expression: 0
  CST7 expression: 0
  CTNNB1 expression: 0
  CTSB expression: 0
  CTSC expression: 0
  CTSF expression: 0
  CTSZ expression: 0
  CX3CR1 expression: 0
  CXCL2 expression: 0
  CXCL6 expression: 0
  CXCL9 expression: 0
  CXCL10 expression: 0
  CXCL11 expression: 0
  CXCL13 expression: 0
  CXCL16 expression: 0
  CXCR2 expression: 0
  CYBA expression: 0
  CYP1A1 expression: 0
  CYP2E1 expression: 0
  CYP7B1 expression: 0
  CYTH3 expression: 0
  CYTIP expression: 0
  DAG1 expression: 0
  DAXX expression: 0
  DBI expression: 0
  DBT expression: 0
  DCN expression: 0
  DDX58 expression: 0
  DENND4A expression: -1.412
  DHRS3 expression: 0
  DNMT1 expression: 0
  DPP4 expression: 0
  DUSP2 expression: 0
  DUSP5 expression: 0
  DUSP14 expression: 0
  EBI3 expression: 0
  ECH1 expression: 1.206
  EDN1 expression: 0
  EFNA1 expression: 0
  EFNB2 expression: 0
  EGFR expression: 1.258
  EGR2 expression: 0
  EIF2AK2 expression: 0
  EMP1 expression: 1.328
  ENG expression: 0
  ENPP3 expression: 0
